The inhibition in vivo is how much of the control response was suppressed.

Holding throughout (type): functional
The test system of assay [1] is Rattus norvegicus. Briefly: Antiinflammatory activity in Wistar albino rat assessed as inhibition of carrageenan-induced paw edema at 10 mg/kg, po administered 30 mins prior to carrageenan challenge measured after 4 hrs by plethysmometer analysis. (The carrageenan paw model is a standard test of acute inflammation.)
The subject of assay [2] is Rattus norvegicus. Briefly: Antiinflammatory activity in Wistar albino rat assessed as inhibition of carrageenan-induced paw edema at 10 mg/kg, po administered 30 mins prior to carrageenan challenge measured after 3 hrs by plethysmometer analysis.
Assay [3] deals with Rattus norvegicus. Briefly: Antiinflammatory activity in Wistar albino rat assessed as inhibition of carrageenan-induced paw edema at 10 mg/kg, po administered 30 mins prior to carrageenan challenge measured after 2 hrs by plethysmometer analysis.
The subject of assay [4] is Rattus norvegicus. Kind of assay: Antiinflammatory activity in Wistar albino rat assessed as inhibition of carrageenan-induced paw edema at 10 mg/kg, po administered 30 mins prior to carrageenan challenge measured after 1 hr by plethysmometer analysis.

Regarding `COc1ccc2c(c1)c(CC(=O)O)c(C)n2C(=O)c1ccc(Cl)cc1` [INDOMETHACIN], the inhibition in vivo at 10 mg/kg was 86.5% in the assay with Rattus norvegicus [1], 80.9% in the assay with Rattus norvegicus [2], 84.2% in the assay with Rattus norvegicus [3] and 94.4% with Rattus norvegicus [4].

The values are drawn from ChEMBL document CHEMBL2331091, “Synthesis and pharmacological evaluation of some novel 2-(5-hydroxy-5-trifluoromethyl-4,5-dihydropyrazol-1-yl)-4-(coumarin-3-yl)thiazoles” (2013).
